Measurements from paper PMC10005185, “Structure-guided engineering of a receptor-agonist pair for inducible activation of the ABA adaptive response to drought” (Science Advances, 2023).
Values joined by “and” are separate entries in the source; they are usually repeats but may differ in a detail not shown here. Equal entries are not always repeated.

Legend:
HAB1 with SlPYL1 = experiment: PP2C inhibition assay, HAB1 with SlPYL1; assay type: biochemical, Solanum lycopersicum (SlPYL1); Arabidopsis thaliana (HAB1); conditions: 100 μM SB
Procedure: (§1) His-tagged receptors and phosphatases were purified using nickel–nitrilotriacetic acid (Ni-NTA) affinity chromatography. Protein integrity was analyzed by SDS–polyacrylamide gel electrophoresis, followed by InstantBlue staining. Phosphatase activity was measured using p-Nitrophenyl Phosphate (pNPP) (25 mM) as substrate, 10 mM MnCl2,1 μM PP2C, and 2 μM of the indicated receptors. Proteins were incubated with the ligands for 10 min at room temperature. pNPP was then added to start the reactions, and the absorbance at 405 nm was monitored for 20 min in a ViktorX5 plate reader. Assays were repeated twice. For dose-response experiments, IC50 values were obtained with GraphPad Prism 9 using a nonlinear regression curve fit. Each ligand concentration was tested in triplicate. Phosphatase activity of ABI1 was measured using RRA(phosphoT)VA peptide as a substrate, as described ([27]).

[1] = system: Arabidopsis thaliana seedlings; experiment: Root growth assay; assay type: in vivo; conditions: for reduction of root growth: 50 μM SB
Procedure: Seedlings were grown on vertically oriented Murashige and Skoog (MS) plates for 4 to 5 days. Afterward, seedlings were transferred to MS supplemented with the indicated concentrations of the different ligands and kept on vertical orientation. Ten days later, the plates were scanned on a flatbed scanner to produce image files suitable for quantitative analysis of root growth using the NIH Image software ImageJ. The experiment was performed in triplicate (n = 13 to 16). Statistical comparisons were performed by either pairwise t tests or one-way ANOVA using GraphPad Prism 9.

ΔNHAB1 with AtPYL10 [2] = target: T1, ΔNHAB1 with AtPYL10 (Arabidopsis thaliana, UniProt Q8H1R0); experiment: PP2C inhibition assay, HAB1 with AtPYL10; assay type: biochemical
T1 construct: His; made in house
Procedure: as §1

ΔNHAB1 with AtPYL10 [3] = experiment: PP2C inhibition assay, HAB1 with AtPYL10; assay type: biochemical, Arabidopsis thaliana; conditions: more sensitive
Procedure: as §1

ΔNHAB1 with AtPYL5 = target: T2, ΔNHAB1 with AtPYL5 (Arabidopsis thaliana, UniProt Q9FLB1); experiment: PP2C inhibition assay, HAB1 with AtPYL5; assay type: biochemical
T2 construct: His; made in house
Procedure: as §1

AtHAB1ΔN with CsPYL1 = experiment: PP2C inhibition assay, HAB1 with CsPYL1; assay type: biochemical, Citrus sinensis (CsPYL1); Arabidopsis thaliana (HAB1); conditions: fig. S1C; AtPYL5, AtPYL10 and PYL1-like receptors
Procedure: as §1, with “Proteins were incubated with the ligands for 10 min at room temperature. pNPP was then added to start the reactions, and the absorbance at 405 nm was monitored for 20 min in a ViktorX5 plate reader.” left out

ΔNHAB1 with AtPYL1 = target: T3, ΔNHAB1 with AtPYL1 (Arabidopsis thaliana, UniProt Q8VZS8); experiment: PP2C inhibition assay, HAB1 with AtPYL1; assay type: biochemical
T3 construct: His; made in house
Procedure: as §1

AtHAB1ΔN with CsPYL1^5m [4] = experiment: PP2C inhibition assay, HAB1 with CsPYL1^5m; assay type: biochemical, Citrus sinensis (CsPYL1^5m); Arabidopsis thaliana (HAB1); conditions: lower for the synthetic receptor
Procedure: as §1, with “Proteins were incubated with the ligands for 10 min at room temperature. pNPP was then added to start the reactions, and the absorbance at 405 nm was monitored for 20 min in a ViktorX5 plate reader.” left out

AtHAB1ΔN with CsPYL1^5m [5] = target: AtHAB1ΔN with CsPYL1^5m (Citrus sinensis, UniProt A0A067E666, F137I/T135L/T153I/V112L/V168A); experiment: PP2C inhibition assay, HAB1 with CsPYL1^5m; assay type: biochemical, Citrus sinensis (CsPYL1^5m); Arabidopsis thaliana (HAB1); conditions: IC50 for inhibition of HAB1 (ΔNHAB1) in the presence of CsPYL1^5m, pNPP as substrate
Procedure: as §1, with “Proteins were incubated with the ligands for 10 min at room temperature. pNPP was then added to start the reactions, and the absorbance at 405 nm was monitored for 20 min in a ViktorX5 plate reader.” left out

[6] = system: Arabidopsis thaliana seedlings (WT Col-0, overexpressing lines, receptor mutants); experiment: Seedling establishment assay; assay type: in vivo
Procedure: Seedling establishment was scored as the percentage of seeds that developed green expanded cotyledons and the first pair of true leaves at 5 or 7 days. Seedling establishment assays in the presence of ABA receptor agonists were performed in 24-well plates, where approximately 25 to 35 seeds per well were sown. Each well contained a different treatment. The experiment was repeated at least twice.

[7] = read-out: inhibition of HAB1 phosphatase activity

T2 sequence (Q9FLB1 whole entry, stated change not applied): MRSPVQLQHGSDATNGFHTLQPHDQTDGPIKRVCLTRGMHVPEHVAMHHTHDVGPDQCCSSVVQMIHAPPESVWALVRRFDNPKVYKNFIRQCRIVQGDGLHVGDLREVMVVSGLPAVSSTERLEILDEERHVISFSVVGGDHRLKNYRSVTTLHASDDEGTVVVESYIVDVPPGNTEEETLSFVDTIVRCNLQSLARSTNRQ
T1 sequence (Q8H1R0 whole entry, stated change not applied): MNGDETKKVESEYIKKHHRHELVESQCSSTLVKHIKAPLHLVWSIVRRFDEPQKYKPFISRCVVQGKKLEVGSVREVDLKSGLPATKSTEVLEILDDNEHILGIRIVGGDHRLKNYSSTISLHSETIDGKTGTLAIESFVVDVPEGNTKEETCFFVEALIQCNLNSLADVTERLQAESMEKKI
Sequence of AtHAB1ΔN with CsPYL1^5m (Citrus sinensis, UniProt A0A067E666, F137I/T135L/T153I/V112L/V168A) (A0A067E666 1-209 V112L/T135L/F137I/T153I/V168A): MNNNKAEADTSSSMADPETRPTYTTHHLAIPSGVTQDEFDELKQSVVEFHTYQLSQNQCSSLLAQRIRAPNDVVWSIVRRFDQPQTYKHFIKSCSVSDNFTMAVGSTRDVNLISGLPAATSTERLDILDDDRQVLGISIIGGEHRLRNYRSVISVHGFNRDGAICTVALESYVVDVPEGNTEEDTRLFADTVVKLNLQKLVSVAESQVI
Sequence of AtHAB1ΔN with CsPYL1^5m (Citrus sinensis, UniProt A0A067E666, F137I/T135L/T153I/V112L/V168A) (Q9CAJ0 179-511 partner): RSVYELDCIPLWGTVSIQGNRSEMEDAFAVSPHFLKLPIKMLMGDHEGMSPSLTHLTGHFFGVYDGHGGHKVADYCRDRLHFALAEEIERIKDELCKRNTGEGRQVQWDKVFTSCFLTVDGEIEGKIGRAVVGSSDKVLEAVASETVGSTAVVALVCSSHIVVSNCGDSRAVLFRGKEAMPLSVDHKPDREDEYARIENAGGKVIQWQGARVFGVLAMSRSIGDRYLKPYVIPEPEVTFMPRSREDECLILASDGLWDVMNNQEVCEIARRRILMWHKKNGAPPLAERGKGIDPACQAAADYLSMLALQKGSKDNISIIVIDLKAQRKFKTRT
T3 sequence (Q8VZS8 whole entry, stated change not applied): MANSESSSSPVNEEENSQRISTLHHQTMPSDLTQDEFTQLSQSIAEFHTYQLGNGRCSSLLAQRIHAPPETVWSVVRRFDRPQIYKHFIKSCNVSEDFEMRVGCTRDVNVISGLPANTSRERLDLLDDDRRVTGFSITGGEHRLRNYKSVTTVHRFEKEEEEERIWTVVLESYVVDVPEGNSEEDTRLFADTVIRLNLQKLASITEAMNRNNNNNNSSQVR

Cc1cc(=O)n(C)c2ccc(S(=O)(=O)NCc3ccccc3)cc12 [SB, N-benzyl-1,4-dimethyl-2-oxo-1,2-dihydroquinoline-6-sulfonamide]
reduction of phosphatase activity (HAB1 with SlPYL1): around 50% | reduction of root growth ([1]; PYL5- and PYL10-overexpressing lines): 40% | reduction of root growth ([1]; WT seedlings): 20% | effect on root growth ([1]; sextuple 112458 mutant): resistant | IC50 of SB relative to IC50 of ABA (ΔNHAB1 with AtPYL10 [2]; AtPYL10): fourfold higher | IC50 (ΔNHAB1 with AtPYL10 [2]; Fig. 1B, read-out: IC50 for SB-dependent inhibition of ΔNHAB1 by AtPYL10): 506 ± 56 nM | inhibition at 100 µM (ΔNHAB1 with AtPYL10 [2]; [7]): > 75% | sensitivity to SB of PYL10 relative to PYL1 members (ΔNHAB1 with AtPYL10 [3]): 20 fold | IC50 (ΔNHAB1 with AtPYL5; Fig. 1B, read-out: IC50 for SB-dependent inhibition of ΔNHAB1 by AtPYL5): 877 ± 6 nM | IC50 of SB relative to IC50 of ABA (ΔNHAB1 with AtPYL5; PYL5, higher than ABA): circa 30 fold | inhibition at 100 µM (ΔNHAB1 with AtPYL5; [7]): > 75% | inhibition of HAB1 activity by candidate molecules of the in silico screening (AtHAB1ΔN with CsPYL1): able to inhibit HAB1 activity | IC50 (ΔNHAB1 with AtPYL1; Fig. 1B, read-out: IC50 for SB-dependent inhibition of ΔNHAB1 by AtPYL1): 10100 ± 1990 nM | IC50 of SB relative to IC50 of ABA (ΔNHAB1 with AtPYL1; PYL1, higher than ABA): circa 30 fold | IC50 of SB for CsPYL1^5m relative to WT CsPYL1 (AtHAB1ΔN with CsPYL1^5m [4]): 12 fold | IC50 (AtHAB1ΔN with CsPYL1^5m [5]): 877 nM and 876 nM | inhibition of seedling establishment ([6]; 35S:CsPYL1^5m lines, 10 μM SB): sensitive | inhibition of seedling establishment ([6]; 35S:CsPYL1 lines, even by 100 μM SB): not affected | dosage required to inhibit seedling establishment relative to ABA ([6]; CsPYL1^5m lines, higher than ABA): 20 fold | inhibition of seedling establishment ([6]; PYL5- and PYL10-overexpressing lines, 50 to 100 μM SB): reduced the seedling establishment | inhibition of seedling establishment ([6]; WT seeds, even at 100 μM): not active
